# Test results taken from paper PMC5728534 (PLoS ONE, 2017).
# Substitutions are numbered along the chain they refer to. Entries after “also recorded” stand apart in the source; their conditions may differ. Read-outs that look alike come from different tables or passages of the source.
# Legend:
# [1] = cited from earlier work
# [2] = physiological pH of 7.4; no reference given; cited from earlier work
# OCT1*1B [3] = target: T1, OCT1*1B (Homo sapiens, UniProt O15245, L160F); test: in vitro; conditions: HEK293 cells overexpressing OCT1*1B, pH 7.4, Km (± SEM), OCT1*1B reference allele, 10-600 μM ranitidine, control-cell uptake subtracted
# T1 sequence (O15245 1-554 L160F): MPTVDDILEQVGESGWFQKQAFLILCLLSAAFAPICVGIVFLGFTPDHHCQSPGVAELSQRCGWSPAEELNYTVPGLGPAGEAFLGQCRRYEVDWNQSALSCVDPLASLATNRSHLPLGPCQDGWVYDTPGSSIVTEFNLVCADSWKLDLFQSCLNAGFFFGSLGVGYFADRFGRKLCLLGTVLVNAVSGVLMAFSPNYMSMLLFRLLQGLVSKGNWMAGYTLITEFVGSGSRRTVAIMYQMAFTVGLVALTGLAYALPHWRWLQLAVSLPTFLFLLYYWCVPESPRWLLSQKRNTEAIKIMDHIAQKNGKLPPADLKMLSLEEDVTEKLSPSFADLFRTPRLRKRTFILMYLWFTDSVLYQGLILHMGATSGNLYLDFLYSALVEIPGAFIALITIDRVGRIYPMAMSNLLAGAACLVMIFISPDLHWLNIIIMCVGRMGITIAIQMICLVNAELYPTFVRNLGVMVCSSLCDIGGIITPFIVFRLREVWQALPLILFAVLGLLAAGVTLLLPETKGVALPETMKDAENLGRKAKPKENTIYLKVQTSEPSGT
# From the text: (§1) HEK293 or CHO cells overexpressing the human OCT1 alleles *1A (characterized by the amino acid substitution Met408Val), *1B, *1C (Phe160Leu), *1D (Pro341Leu/Met408Val), *2 (Met420del), *3 (Arg61Cys), *4 (Gly401Ser), *5 (Gly465Arg/Met420del), *6 (Cys88Arg/Met420del), *7 (Ser14Phe), *8A (Arg488Met), *8B (Arg488Met/Met408Val), *9 (Pro117Leu), *10 (Ser189Leu), *11 (Ile449Thr), *12 (Ser29Leu), or *13 (Thr245Met), the human OCT2 reference and variant alleles (Ala270Ser), human OCT3, and the control cells (transfected with the empty pcDNA5 vector) were generated by targeted chromosomal integration using the Flp-In™ System (Life Technologies, Darmstadt, Germany).
# (§2) Six hundred thousand HEK293 or CHO cells were plated per well in 12-well plates (pre-coated with poly-D-lysine) and were grown for 48 hours to reach confluence. Cells were kept at 37°C and 5% CO2 in DMEM (HEK293) or RPMI (CHO), supplemented with 10% FCS, 100 U/ml penicillin, and 100 μg/ml streptomycin. Uptake experiments were performed at pH 7.4 using HBSS supplemented with 10 mM HEPES buffer (herein referred to as HBSS+). Cells were washed once with 1 ml pre-warmed HBSS+ buffer (37°C). […] Cells were washed twice with 2 ml ice-cold HBSS+ and lysed in 500 μl lysis buffer.
# (§3) For all transport measurements, the intracellular amount of substrate was normalized to the total amount of protein of the sample as measured using the bicinchoninic acid assay [49].
# (§4) For quantification of intracellular substrates, the cell debris were removed by centrifugation at 17,000 x g for 10 min. Four-hundred μl of the supernatant was evaporated to dryness under nitrogen flow at 40°C. The residue was reconstituted in 200 μl 0.1% formic acid and 10 μl were injected into the LC-MS/MS. For the LC-MS/MS analysis an API 4000™ system tandem mass spectrometer (AB SCIEX, Darmstadt, Germany) was used. Samples were separated using a Brownlee SPP RP-Amide Column (4.6x100 mm, 2.7 μm; PerkinElmer), with a SecurityGuard C18, 4x2 mm pre-column (Phenomenex, Aschaffenburg, Germany).
# (§5) Nonlinear regression to the Michaelis-Menten equation was performed to determine Km and vmax using GraphPad Prism version 6 (GraphPad Software Inc., La Jolla, CA, USA). Nonlinear regression to the Hill equation v = vmin+(vmax-vmin)/1+([I]/IC50)^-Hillslope was performed to determine IC50 using SigmaPlot version 12.0 (Systat Software, San Jose, California, USA).
# [4] = parameters: method as in ref 56 = [56]; 56 Pharma ® A. Fachinformation Ranitidin 150–1 A Pharma ® , Ranitidin 300–1 A Pharma ® : Rote Liste ®; 2013 [updated June 2013; cited 2016 21.10.2016].; conditions: cited from earlier work
# [5] = parameters: method as in ref 5 = [5]; 5 Inc. G. PrZANTAC ® [product monograph]. Canada: GlaxoSmithKline Inc.; 2015 [updated 15.01.2015; cited 2016 21.10.2016].; conditions: long-term toxicity tests in animals; cited from earlier work
# OCT1*1B [6] = target: T1, OCT1*1B; conditions: for Vmax (±SEM): OCT1*1B reference allele, 10-600 μM ranitidine, control-cell uptake subtracted
# From the text: as §1, §2, §3, §4, §5
# OCT1*13 (Thr245Met) = target: T2, OCT1*13 (Thr245Met) (Homo sapiens, UniProt O15245, L160F/T245M); test: Ranitidine uptake in HEK293 cells overexpressing OCT1*13; format: in vitro ADME; conditions: 1 μM and 10 μM ranitidine, 2 min
# T2 construct: expressed in transfected cells; host or cells: HEK293 T-REx (Flp-In)
# T2 sequence (O15245 1-554 L160F/T245M): T1 sequence (O15245 1-554 L160F) with T245M
# From the text: as §1
# (§6) Six hundred thousand HEK293 or CHO cells were plated per well in 12-well plates (pre-coated with poly-D-lysine) and were grown for 48 hours to reach confluence. Cells were kept at 37°C and 5% CO2 in DMEM (HEK293) or RPMI (CHO), supplemented with 10% FCS, 100 U/ml penicillin, and 100 μg/ml streptomycin. Uptake experiments were performed at pH 7.4 using HBSS supplemented with 10 mM HEPES buffer (herein referred to as HBSS+). […]
# as §3
# (§7) For quantification of intracellular substrates, the cell debris were removed by centrifugation at 17,000 x g for 10 min. […]
# OCT1*2 (Met420del) = target: T3, OCT1*2 (Met420del) (Homo sapiens, UniProt O15245, DEL420-420/L160F)
# T3 sequence (O15245 with tags, fused parts or gaps L160F/DEL420-420): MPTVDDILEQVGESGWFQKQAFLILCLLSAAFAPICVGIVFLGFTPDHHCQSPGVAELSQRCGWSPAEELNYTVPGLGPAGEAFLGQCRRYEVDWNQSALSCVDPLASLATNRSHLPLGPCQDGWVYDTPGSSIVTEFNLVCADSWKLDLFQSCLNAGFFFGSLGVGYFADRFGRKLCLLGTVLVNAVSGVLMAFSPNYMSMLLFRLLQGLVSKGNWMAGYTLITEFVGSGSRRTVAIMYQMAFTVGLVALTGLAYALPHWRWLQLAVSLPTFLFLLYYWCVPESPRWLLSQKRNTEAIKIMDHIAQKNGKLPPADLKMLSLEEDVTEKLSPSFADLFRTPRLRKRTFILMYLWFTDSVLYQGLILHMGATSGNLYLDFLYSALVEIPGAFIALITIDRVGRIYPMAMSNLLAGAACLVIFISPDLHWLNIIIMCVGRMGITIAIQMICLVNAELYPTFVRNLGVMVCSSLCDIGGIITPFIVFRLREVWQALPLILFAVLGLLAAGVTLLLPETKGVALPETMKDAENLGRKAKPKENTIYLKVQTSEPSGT
# From the text: as §1, §6, §3, §7
smiles,measurement,setting,value
"CNC(=C[N+](=O)[O-])NCCSCc1ccc(CN(C)C)o1 [ranitidine, Ranitidine]",portion eliminated unchanged via renal excretion,[1]; after oral administration,approximately half
same,oral bioavailability,[1],50–60%
same,time to maximal plasma concentrations after administration,[1],two to three
same,"[I]1, mean unbound ranitidine steady state total Cmax",[1]; highest clinical dose (300 mg),2200 nM
same,bioavailability in hepatic dysfunction,[1]; increase from 50%,70%
same,volume of distribution,[1]; no reference given,~1.4 L/kg
same,ranitidine molecules that are positively charged organic cations,[2],86%
same,Km at 2 min,OCT1*1B [3],62.9 µM
same,dosages exceeding the single dose not associated with a higher prevalence of adverse reactions,[4],more than 20 fold
same,plasma concentrations exceeding the human maximal plasma concentration without significant adverse reactions,[5],50 fold
same,"ranitidine uptake, OCT1-overexpressing compared to control cells","OCT1*1B [6]; 1 μM ranitidine, 2 min, HEK293",7.8 fold
same,"intracellular concentration of ranitidine, OCT1-overexpressing cells compared to control cells","OCT1*1B [6]; 1 μM ranitidine, after 1 min of incubation, HEK293",8.5 fold
same,Vmax (±SEM),"OCT1*1B [6]; HEK293, 2 min",1125 ± 86.1 pmol x min^-1 x mg protein^-1
same,Vmax (±SEM),"OCT1*1B [6]; HEK293, 2 min, listed as Ranitidine",1125 pmol x min^-1 x mg protein^-1
same,vmax,OCT1*1B [6]; wild-type OCT1 (abstract),1125 pmol/min/mg protein
same,ranitidine transport activity,OCT1*13 (Thr245Met),completely lacked ranitidine uptake; also recorded: complete lack of ranitidine transport activity
same,decrease of vmax compared to the reference allele,OCT1*2 (Met420del); OCT1*2,more than 50%
same,Vmax (±SEM),"OCT1*2 (Met420del); OCT1*2 Met420del, HEK293, 10-600 μM ranitidine, 2 min",402.04 (±51.24) pmol x min^-1 x mg protein^-1
